The results in this text go back to patent US9969694B2, “N-(arylalkyl)-N′-pyrazolyl-urea, thiourea, guanidine and cyanoguanidine compounds as TrkA kinase inhibitors” (Array BioPharma Inc., priority 2012, dated 2018).

This experiment concerns the target T1, His-tagged recombinant human TrkA (Homo sapiens, UniProt P04629).
T1 construct: 6HIS tagged cytoplasmic domain from Invitrogen, Catalog No. PV3144; purchased Invitrogen PV3144
Put plainly: TrkA Kinase Binding Assay (LanthaScreen Eu). Conditions: averaged IC50; TR-FRET binding, 60 min, 22° C.; read-out: TrkA Enzyme IC50. The method, then: TrkA binding activity was determined in a TrkA LanthaScreen™ Eu Kinase Binding Assay. 5 nM His-tagged recombinant human TrkA (6HIS tagged cytoplasmic domain from Invitrogen, Catalog No. PV3144) was incubated with 4 nM Alexa-Fluor® Tracer 236 (Invitrogen Cat. No. PV5592), 2 nM biotinylated anti-His (Invitrogen Cat. No. PV6090), and 2 nM europium-labeled Streptavidin (Invitrogen Cat. No. PV5899), in buffer (25 mM MOPS, pH 7.5, 5 mM MgCl2, 0.005% Triton X-100). Three fold serial dilutions of compounds of the invention in DMSO were added to a final percentage of 2% DMSO. After 60-minute incubation at 22° C., the reaction was measured using the EnVision mutlimode plate reader (PerkinElmer) via TR-FRET dual wavelength detection at […]. The percent of control was calculated using a ratiometric emission factor. The IC50 values were determined by fitting a four parameter model to the percent of control data.
Table A provides averaged IC50 values for compounds of the invention when tested in the assay of Example A, where A represents an averaged IC50 value <100 nM; B represents an averaged IC50 value from 100 to 1,000 nM; and C represents an average 1050 value above 1000 nM.

A value given as a limit tells only on which side of the number the result lay.

T1 sequence (P04629 440-796 limits assumed): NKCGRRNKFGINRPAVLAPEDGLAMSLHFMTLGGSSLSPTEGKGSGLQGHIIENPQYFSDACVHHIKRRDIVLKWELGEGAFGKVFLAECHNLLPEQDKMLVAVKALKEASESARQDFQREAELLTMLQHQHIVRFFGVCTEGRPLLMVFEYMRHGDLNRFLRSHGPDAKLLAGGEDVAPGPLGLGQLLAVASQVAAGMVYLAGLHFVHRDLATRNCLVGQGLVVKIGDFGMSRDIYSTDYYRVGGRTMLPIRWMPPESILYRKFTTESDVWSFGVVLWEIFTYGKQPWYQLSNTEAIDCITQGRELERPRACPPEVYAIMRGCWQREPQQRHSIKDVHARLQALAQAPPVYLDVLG

In general, IC50 refers to the point on the concentration scale where inhibition reaches its midpoint. For the compound “5-(3-(2-(difluoromethoxy)-5-(methoxymethyl)benzyl)ureido)-N,4-dimethyl-1-phenyl-1H-pyrazole-3-carboxamide [Example 51]”, the half-maximal inhibitory concentration (IC50) was less than 100 nM.

For `COCc1ccc(C2CC2)c(CNC(=O)Nc2c(C)c(-c3cnc(C)nc3)nn2-c2ccccc2)c1` [Example 1, 1-(2-cyclopropyl-5-(methoxymethyl)benzyl)-3-(4-methyl-3-(2-methylpyrimidin-5-yl)-1-phenyl-1H-pyrazol-5-yl)urea], the IC50 was less than 100 nM.

`CCOc1nn(-c2ccccc2)c(NC(=O)NCc2cc(COC)ccc2C2CC2)c1C` [Example 2, 1-(2-cyclopropyl-5-(methoxymethyl)benzyl)-3-(3-ethoxy-4-methyl-1-phenyl-1H-pyrazol-5-yl)urea]: the IC50 was less than 100 nM.

Regarding `COCc1ccc(C2CC2)c(CNC(=O)Nc2c(C)c(-c3ccc(C)nc3)nn2-c2ccccc2)c1` [Example 3, 1-(2-cyclopropyl-5-(methoxymethyl)benzyl)-3-(4-methyl-3-(6-methylpyridin-3-yl)-1-phenyl-1H-pyrazol-5-yl)urea], the IC50 is less than 100 nM.

With `COCc1ccc(C2CC2)c(CNC(=O)Nc2c(C)c(-c3ccc(=O)n(C)c3)nn2-c2ccccc2)c1` [Example 4, 1-(2-cyclopropyl-5-(methoxymethyl)benzyl)-3-(4-methyl-3-(1-methyl-6-oxo-1,6-dihydropyridin-3-yl)-1-phenyl-1H-pyrazol-5-yl)urea], the IC50 is less than 100 nM.

For the compound `COCc1ccc(C2CC2)c(CNC(=O)Nc2c(C)c(C)nn2-c2ccccc2)c1` [Example 5, 1-(2-cyclopropyl-5-(methoxymethyl)benzyl)-3-(3,4-dimethyl-1-phenyl-1H-pyrazol-5-yl)urea], the IC50 was less than 100 nM.

On to `COCc1ccc(C2CC2)c(CNC(=O)Nc2c(C)c(-c3cnn(C)c3)nn2-c2ccccc2)c1` [Example 6, 1-(2-cyclopropyl-5-(methoxymethyl)benzyl)-3-(1′,4-dimethyl-1-phenyl-1H,1′H-[3,4′-bipyrazol]-5-yl)urea], for which the IC50 is less than 100 nM.

As to `COCc1ccc(C2CC2)c(CNC(=O)Nc2c(C)c(-c3ccn(C)c(=O)c3)nn2-c2ccccc2)c1` [Example 7, 1-(2-cyclopropyl-5-(methoxymethyl)benzyl)-3-(4-methyl-3-(1-methyl-2-oxo-1,2-dihydropyridin-4-yl)-1-phenyl-1H-pyrazol-5-yl)urea], the half-maximal inhibitory concentration (IC50) was less than 100 nM.

As for `COCc1ccc(C2CCC2)c(CNC(=O)Nc2c(C)c(-c3ccc(C)nc3)nn2-c2ccccc2)c1` [Example 8, 1-(2-cyclobutyl-5-(methoxymethyl)benzyl)-3-(4-methyl-3-(6-methylpyridin-3-yl)-1-phenyl-1H-pyrazol-5-yl)urea], the IC50 is less than 100 nM.

Turning to `COCc1ccc(C2CCC2)c(CNC(=O)Nc2c(C)c(-c3ccc(=O)n(C)c3)nn2-c2ccccc2)c1` [Example 9, 1-(2-cyclobutyl-5-(methoxymethyl)benzyl)-3-(4-methyl-3-(1-methyl-6-oxo-1,6-dihydropyridin-3-yl)-1-phenyl-1H-pyrazol-5-yl)urea], the IC50 is less than 100 nM.

Take `COCc1ccc(C2CCC2)c(CNC(=O)Nc2c(C)c(-c3cnn(C)c3)nn2-c2ccccc2)c1` [Example 11, 1-(2-cyclobutyl-5-(methoxymethyl)benzyl)-3-(1′,4-dimethyl-1-phenyl-1H,1′H-[3,4′-bipyrazol]-5-yl)urea]: the IC50 is less than 100 nM.

For `COCc1ccc(C2CCCC2)c(CNC(=O)Nc2c(C)c(-c3cnc(C)nc3)nn2-c2ccccc2)c1` [Example 12, 1-(2-cyclopentyl-5-(methoxymethyl)benzyl)-3-(4-methyl-3-(2-methylpyrimidin-5-yl)-1-phenyl-1H-pyrazol-5-yl)urea], the concentration for half-maximal inhibition (IC50) was less than 100 nM.

Consider `COCc1ccc(C2CCCC2)c(CNC(=O)Nc2c(C)c(-c3ccc(C)nc3)nn2-c2ccccc2)c1` [Example 13, 1-(2-cyclopentyl-5-(methoxymethyl)benzyl)-3-(4-methyl-3-(6-methylpyridin-3-yl)-1-phenyl-1H-pyrazol-5-yl)urea], for which the IC50 is less than 100 nM.

With `COCc1ccc(OCC2CC2)c(CNC(=O)Nc2c(C)c(-c3cnn(C)c3)nn2-c2ccccc2)c1` [Example 14, 1-(2-(cyclopropylmethoxy)-5-(methoxymethyl)benzyl)-3-(1′,4-dimethyl-1-phenyl-1H,1′H-[3,4′-bipyrazol]-5-yl)urea], the IC50 is less than 100 nM.

Consider `CCOc1ccc(C2CC2)c(CNC(=O)Nc2c(C)c(-c3cnn(C)c3)nn2-c2ccccc2)c1` [Example 15, 1-(2-cyclopropyl-5-ethoxybenzyl)-3-(1′,4-dimethyl-1-phenyl-1H,1′H-[3,4′-bipyrazol]-5-yl)urea], for which the IC50 is less than 100 nM.

Regarding `COC(C)c1ccc(C2CCC2)c(CNC(=O)Nc2c(C)c(-c3cnc(C)nc3)nn2-c2ccccc2)c1` (centres unmarked) [Example 16, 1-(2-cyclobutyl-5-(1-methoxyethyl)benzyl)-3-(4-methyl-3-(2-methylpyrimidin-5-yl)-1-phenyl-1H-pyrazol-5-yl)urea], the IC50 fell in the range of 100 to 1000 nM.

`CCOc1ccc(COC)cc1CNC(=O)Nc1c(C)c(-c2cnn(C)c2)nn1-c1ccccc1` [Example 17, 1-(1′,4-dimethyl-1-phenyl-1H,1′H-[3,4′-bipyrazol]-5-yl)-3-(2-ethoxy-5-(methoxymethyl)benzyl)urea]: the IC50 is less than 100 nM.

Turning to `COCc1ccc(OC2CCC2)c(CNC(=O)Nc2c(C)c(-c3cnn(C)c3)nn2-c2ccccc2)c1` [Example 18, 1-(2-cyclobutoxy-5-(methoxymethyl)benzyl)-3-(1′,4-dimethyl-1-phenyl-1H,1′H-[3,4′-bipyrazol]-5-yl)urea], the IC50 fell in the range of 100 to 1000 nM.

In the case of `COCc1ccc(OC2CCC2)c(CNC(=O)Nc2c(C)c(-c3ccc(C)nc3)nn2-c2ccccc2)c1` [Example 19, 1-(2-cyclobutoxy-5-(methoxymethyl)benzyl)-3-(4-methyl-3-(6-methylpyridin-3-yl)-1-phenyl-1H-pyrazol-5-yl)urea], the IC50 is less than 100 nM.

Regarding `COCc1ccc(OC(F)F)c(CNC(=O)Nc2c(C)c(-c3cnn(C)c3)nn2-c2ccccc2)c1` [Example 20, 1-(2-(difluoromethoxy)-5-(methoxymethyl)benzyl)-3-(1′,4-dimethyl-1-phenyl-1H,1′H-[3,4′-bipyrazol]-5-yl)urea], the IC50 is less than 100 nM.

As for `COCc1ccc(OC(F)F)c(CNC(=O)Nc2c(C)c(-c3ccc(C)nc3)nn2-c2ccccc2)c1` [Example 21, 1-(2-(difluoromethoxy)-5-(methoxymethyl)benzyl)-3-(4-methyl-3-(6-methylpyridin-3-yl)-1-phenyl-1H-pyrazol-5-yl)urea], the IC50 is less than 100 nM.

For the compound `COCc1ccc(OC(F)(F)F)c(CNC(=O)Nc2c(C)c(-c3cnn(C)c3)nn2-c2ccccc2)c1` [Example 22, 1-(1′,4-dimethyl-1-phenyl-1H,1′H-[3,4′-bipyrazol]-5-yl)-3-(5-(methoxymethyl)-2-(trifluoromethoxy)benzyl)urea], the IC50 was 100 to 1000 nM.

As for `COCc1ccc(OC(F)(F)F)c(CNC(=O)Nc2c(C)c(-c3ccc(C)nc3)nn2-c2ccccc2)c1` [Example 23, 1-(5-(methoxymethyl)-2-(trifluoromethoxy)benzyl)-3-(4-methyl-3-(6-methylpyridin-3-yl)-1-phenyl-1H-pyrazol-5-yl)urea], the IC50 is less than 100 nM.

Take `COCc1ccc(C2(OC)CCC2)c(CNC(=O)Nc2c(C)c(-c3ccc(C)nc3)nn2-c2ccccc2)c1` [Example 24, 1-(2-(1-methoxycyclobutyl)-5-(methoxymethyl)benzyl)-3-(4-methyl-3-(6-methylpyridin-3-yl)-1-phenyl-1H-pyrazol-5-yl)urea]: the IC50 was 100 to 1000 nM.

Turning to `COCc1ccc(C2CC2(F)F)c(CNC(=O)Nc2c(C)c(-c3cnn(C)c3)nn2-c2ccccc2)c1` (centres unmarked) [Example 25, 1-(2-(2,2-difluorocyclopropyl)-5-(methoxymethyl)benzyl)-3-(1′,4-dimethyl-1-phenyl-1H,1′H-[3,4′-bipyrazol]-5-yl)urea 2,2,2-trifluoroacetate], the IC50 is less than 100 nM.

Regarding `COCc1cccc(C(NC(=O)Nc2c(C)c(-c3ccc(=O)n(C)c3)nn2-c2ccccc2)C2CC2)c1` (centres unmarked) [Example 26, 1-(cyclopropyl(3-(methoxymethyl)phenyl)methyl)-3-(4-methyl-3-(1-methyl-6-oxo-1,6-dihydropyridin-3-yl)-1-phenyl-1H-pyrazol-5-yl)urea], the IC50 is 100 to 1000 nM.

`COCc1cccc(C(NC(=O)Nc2c(C)c(-c3ccn(C)c(=O)c3)nn2-c2ccccc2)C2CC2)c1` (centres unmarked) [Example 27, 1-(cyclopropyl(3-(methoxymethyl)phenyl)methyl)-3-(4-methyl-3-(1-methyl-2-oxo-1,2-dihydropyridin-4-yl)-1-phenyl-1H-pyrazol-5-yl)urea]: the IC50 is 100 to 1000 nM.

Consider `COCc1cccc(C(NC(=O)Nc2c(C)c(-c3cnn(C)c3)nn2-c2ccccc2)C2CC2)c1` (centres unmarked) [Example 28, 1-(cyclopropyl(3-(methoxymethyl)phenyl)methyl)-3-(1′,4-dimethyl-1-phenyl-1H,1′H-[3,4′-bipyrazol]-5-yl)urea], for which the IC50 was 100 to 1000 nM.

`COCc1cccc(C(C)NC(=O)Nc2c(C)c(-c3cnn(C)c3)nn2-c2ccccc2)c1` (centres unmarked) [Example 29, 1-(1′,4-dimethyl-1-phenyl-1H,1′H-[3,4′-bipyrazol]-5-yl)-3-(1-(3-(methoxymethyl)phenyl)ethyl)urea 2,2,2-trifluoroacetate]: the IC50 lay in the range of 100 to 1000 nM.
